# Results as given in patent publication US9458165B2, “DOT1L inhibitors” (Dana-Farber Cancer Institute, Inc., priority 2014, dated 2016).
# Columns and labels:
# Type in all cases: cell-based
# MV411 = experiment: Cellular activity in DOT1L related leukemia cell line (FIG. 10A); conditions: compared to EPZ4777, FIG. 10A
# H3K27Me3 mark = experiment: Western blot assay; conditions: compared to EPZ004777 and CC001, FIG. 5
# [1] = Cellular assays (not specified at the place)
# Method: The compounds of Examples 1-4 and known DOT1L inhibitors were analyzed in a High Content Imaging Assay (HCI).
compound,measurement,setting,value
"CC(C)N(C[C@H]1C[C@@H](n2cc(C#N)c3c(N)ncnc32)[C@H](O)[C@@H]1O)C1CC(CCc2nc3ccc(C(C)(C)C)cc3[nH]2)C1 (stereo partly drawn) [Example 1, 4-amino-7-((1R,2S,3R,4R)-4-(((3-(2-(6-(tert-butyl)-1H-benzo[d]imidazol-2-yl)ethyl)cyclobutyl)(isopropyl)amino)methyl)-2,3-dihydroxycyclopentyl)-7H-pyrrolo[2,3-d]pyrimidine-5-carbonitrile]",cellular activity on DOT1L related leukemia,MV411,more potent than EPZ4777
same,reduction of H3K27 trimethylation,H3K27Me3 mark,can reduce the H3K27 trimethylation at much lower dose compared to known DOT1L inhibitors EPZ004777 (structure shown below) and CC001
same,cellular activity compared to CC0001,[1],largely improved cellular activity compared to CC0001
